Like-named read-outs stand apart in the source and are kept apart here.
Legend:
general symptoms = test: General symptoms observation; type: in vivo; details: mice, 100 mg/kg orally, observed 0.5 to 24 hours after administration
Procedure: Pharmacological Test 5 (General Symptoms Observation)
A test compound was orally administered to male ICR mice (4–6 weeks old) under the overnight fasting condition, and general symptoms were observed 0.5, 1, 2, 3, 4 and 24 hours after the administration. The following 28 items were observed: stereotypy, glooming, vocalization, exploratory behavior, motor coordination, Straub tail reaction, tremor, convulsion, body posture, piloerection, writhing, palpebral opening, exophthalmos, skin color, respiratory rate, urination, defecation, salivation, lacrimation, startle response, aggression, grip strength, corneal reflex, body temperature, body tone, righting reflex, pain response and death.

[1] = Brain/cerebrospinal fluid transport test; type: in vivo, male SD rats; details: rat, one hour after oral administration (10 mg/kg); for concentration at 1 h: male, SD
Procedure: Pharmacological Test 4 (Brain/Cerebrospinal Fluid Transport Test)
A test compound was orally or intravenously administered to male SD rats (7–10 weeks old, 200–400 g), and whole blood was collected from the abdominal aorta using a heparin-treated syringe under the ether anesthesia at designated time. Then, the head skin was cut out, and a dental 30 G needle was inserted between the cervical vertebrae, and it was further inserted into the cavum subarachnoideum. After 50 to 100 μL cerebrospinal fluid had been collected by a 1 ml-syringe through a tube connected to the dental 30 G needle, the brain was extracted. The blood sample was centrifuged (4° C., 6,000 r.p.m., 10 minutes) to obtain the plasma, and 3-fold amount of ethanol containing an internal standard was added and stirred. The brain sample was homogenized after addition of 2 ml water, and an aliquot of the homogenate was taken and 3-fold amount of ethanol containing an internal standard was added and stirred. The cerebrospinal fluid was stirred after adding 3-fold amount of ethanol containing an internal standard. These samples were allowed to stand at −20° C. for 20 minutes, and then centrifuged (4° C., 12,000 g, 10 minutes). The supernatant was analyzed by LC/MS/MS, and the concentration of the test compound in the plasma, brain, and cerebrospinal fluid were measured by the method using a relative calibration curve.

[2] = system: gastrointestinal motility; test: Gastrointestinal motility (charcoal transportation); type: in vivo, male ICR mice; details: mice, 100 mg/kg orally, charcoal one hour later
Procedure: Pharmacological Test 6 (Gastrointestinal Motility) A test compound was orally administered to male ICR mice (4–6 weeks old) under the overnight fasting condition and, one hour later, 0.5% charcoal suspension (0.1 ml/10 g body weight) was orally administered. One hour after the administration of the charcoal, gastrointestinal tracts of the animals were removed, and length of the intestine from pylorus to the point to which charcoal reached was measured to obtain charcoal transportation ratio.

Pharmacokinetics test = type: in vivo; details: rat, plasma, male SD rats, overnight fasting
Procedure: Pharmacological Test 3 (Pharmacokinetics Test)
A test compound was orally or intravenously administered to male SD rats (7–10 weeks old, 200–400 g) under the overnight fasting condition. About 100 μL of blood was collected from the tail vein by heparinized capillary at designated time. The blood was centrifuged (4° C., 6,000 r.p.m., 10 minutes) to obtain the plasma. Three-fold amount of ethanol containing an internal standard was added to plasma. The mixture was stirred, allowed to stand at −20° C. for 20 minutes, and then centrifuged (4° C., 10,000 r.p.m., 10 minutes). The supernatant was analyzed by LC/MS/MS, and the concentration of the test compound in the plasma was measured using a relative calibration curve.

human NPY Y5 receptor = target: T1, human NPY Y5 receptor (Homo sapiens, UniProt Q15761); test: NPY binding inhibition test ([125I]peptide YY binding to membranes of NPY Y5 receptor expression cells); details: [125I]peptideYY, membranes of NPY Y5 receptor expressing cells, 25° C., 2 hours; read-out: 50% Inhibitory Concentration (IC50) against specific peptide YY binding
T1 construct: expressed in transfected cells; host or cells: COS-7, CHO and LM(tk-)
T1 sequence (Q15761 1-445): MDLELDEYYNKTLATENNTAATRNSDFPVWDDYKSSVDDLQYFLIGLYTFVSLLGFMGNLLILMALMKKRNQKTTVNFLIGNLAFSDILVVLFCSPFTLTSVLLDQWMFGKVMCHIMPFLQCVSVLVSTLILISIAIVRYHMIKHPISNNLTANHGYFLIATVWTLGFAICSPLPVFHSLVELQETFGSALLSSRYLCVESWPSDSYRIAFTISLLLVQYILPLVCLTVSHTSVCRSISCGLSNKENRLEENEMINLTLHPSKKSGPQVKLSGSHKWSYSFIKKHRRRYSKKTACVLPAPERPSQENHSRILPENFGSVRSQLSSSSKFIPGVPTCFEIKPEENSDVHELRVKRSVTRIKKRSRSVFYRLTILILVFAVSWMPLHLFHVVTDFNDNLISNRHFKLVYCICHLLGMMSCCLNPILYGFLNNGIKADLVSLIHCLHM
Excerpt: Pharmacological Test 1 (NPY Binding Inhibition Test)
cDNA sequence encoding human NPY Y5 receptor (c.f. International patent publication WO96/16542) was cloned into expression vectors pcDNA3, pRc/RSV (made by Invitrogen Inc.) and pCI-neo (made by Promega Inc.). The expression vectors thus obtained were transfected to host cells COS-7, CHO and LM(tk−) (American Type Culture Collection) by cationic lipid method (Proceedings of the National Academy of Sciences of the United States of America, vol. 84: p. 7413(1987)) to give NPY Y5 receptor expression cells.
A membrane sample prepared from the cells which expressed NPY Y5 receptor was incubated together with a test compound and [^125I]peptideYY (made by NEN) (20,000 cpm) in an assay buffer (25 mM Tris buffer, pH7.4, containing 10 mM magnesium chloride, 1 mM phenylmethylsulfonyl fluoride, 0.1% bacitracin and 0.5% bovine serum albumin) at 25° C. for 2 hours, then filtered through a glass filter GF/C and washed with 5 mM Tris buffer (pH7.4) containing 0.3% BSA. The radioactivity of the cake on the glass filter was measured. Non-specific binding was measured in the presence of 1 μM peptide YY, and a 50% Inhibitory Concentration (IC50) of the test compound against specific peptide YY binding was determined (Endocrinology, vol. 131: p. 2090(1992)).

canine cardiac function = test: Canine cardiac function; type: in vivo, male beagle dogs; details: anesthetized beagle dogs, 3 mg/kg and 10 mg/kg via vein cannula, up to 60 minutes
Excerpt: Pharmacological Test 7 (Canine Cardiac Function)
The left femoral artery and vein of male beagle dogs (age: 9 months or older, weight: 10–15 kg) under anesthesia with isoflurane and artificial respiration were respectively cannulated for determination of arterial pressure and for administration of drugs. A tip catheter pressure transducer was placed in the left ventricle from the left carotid artery for determination of the left ventricular pressure. A Swan-Ganz catheter was placed in the pulmonary artery from the jugular vein via the right ventricle for determination of the pulmonary artery pressure, right atrium pressure and cardiac output. A transit doppler flow probe was attached to the right femoral artery for determination of the femoral blood flow. After completion of the operation, a solvent was administered from the cannula in the vein, followed by administration of a drug to be tested. Each parameter was determined just after the administration, and 10, 20, 30 and 60 minutes after the administration. The parameters determined were artery pressure, left ventricular pressure, pulmonary artery pressure, right atrium pressure, cardiac output, femoral blood flow, heart rate, electrocardiogram, left ventricular contractile performance (first differential of the left ventricular pressure), total peripheral vascular resistance, body temperature and arterial blood gas.

## C[C@@H]1NC(c2cccc(=O)[nH]2)=N[C@]1(c1ccc(F)cc1)c1ccnc(F)c1 [Example 1, 6-[(4R,5S)-4-(4-fluorophenyl)-4-(2-fluoro-4-pyridyl)-5-methyl-2-imidazolin-2-yl]-2(1H)-pyridinone]
General symptoms
  effect on general symptoms (28 items): did not affect
[1]; cerebrospinal fluid, read-out: concentration in the cerebrospinal fluid
  concentration at 1 h: 106 nM
[1]; plasma, read-out: concentration in the plasma
  concentration at 1 h: 2790 nM
[1]
  concentration in the brain: 0.29 nmol/g
[2]
  effect on gastrointestinal motility (charcoal transportation ratio): did not affect
Pharmacokinetics test; oral or intravenous administration
  bioavailability: 51%
Pharmacokinetics test
  half-life: 2.5 h
Human NPY Y5 receptor
  IC50: 2.8 nM
Canine cardiac function
  effect on canine cardiac function: did not affect

Reference: patent US7119107B2, “Pyridone derivatives” (Banyu Pharmaceutical Co., Ltd., priority 2002, dated 2006)
